From patent US11191271B2, “Active compound combinations having insecticidal/acaricidal properties” (priority 2017, dated 2021)

How the values were obtained:
Format in all cases: in vivo
[1] = test system: caterpillars of the fall army worm (Spodoptera frugiperda); experiment: Spodoptera frugiperda - spray test; details: for Efficacy in % after 1 day: mortality after 1 day; for Efficacy in % after 2 days: mortality after 2 days; for Efficacy in % after 3 days: mortality after 3 days; for Efficacy in % after 6 days: mortality after 6 days
Experimental: (§1) Formula for the Efficacy of the Combination of Two Compounds • The expected efficacy of a given combination of two compounds is calculated as follows (see Colby, S. R., “Calculating Synergistic and antagonistic Responses of Herbicide Combinations”, Weeds 15, pp. 20-22, 1967): • If • X is the efficacy expressed in % mortality of the untreated control for test compound A at a concentration of m ppm respectively m g/ha, • Y is the efficacy expressed in % mortality of the untreated control for test compound B at a concentration of n ppm respectively n g/ha, • E is the efficacy expressed in % mortality of the untreated control using the mixture of A and B at m and n ppm respectively m and n g/ha, • then is
(§2) [formula] • If the observed insecticidal efficacy of the combination is higher than the one calculated as “E”, then the combination of the two compounds is more than additive, i.e. there is a synergistic effect.
Spodoptera frugiperda—Spray Test
(§3) Solvent: 7 parts by weight of dimethylformamide
(§4) Emulsifier: alkylaryl polyglycol ether
(§5) To produce a suitable preparation of active compound, 1 part by weight of active compound is mixed with the stated amount of solvent and is diluted with water, containing an emulsifier concentration of 1000 ppm, to the desired concentration. Further test concentrations are prepared by dilution with emulsifier containing water.
Cotton leaves (Gossypium hirsutum) are treated by being sprayed with the preparation of the active compound of the desired concentration and are infested with caterpillars of the fall army worm (Spodoptera frugiperda).
After the specified period of time mortality in % is determined. 100% means all the caterpillars have been killed and 0% means none of the caterpillars have been killed. The mortality values determined thus are recalculated using the Colby-formula (see above).

[2] = test system: two spotted spidermite (Tetranychus urticae); experiment: Tetranychus urticae - spray test OP-resistant; details: for Efficacy in % after 6 days: mortality after 6 days; for Efficacy in % after 2 days: mortality after 2 days
Experimental: as §1, §2
Tetranychus urticae—Spray Test OP-Resistant
as §5, with “solvents” for “solvent”
French bean (Phaseolus vulgaris) leaf disks infected with all instars of the two spotted spidermite (Tetranychus urticae), are sprayed with a preparation of the active ingredient of the desired concentration.
After the specified period of time, mortality in % is determined. 100% means all spider mites have been killed and 0% means none of the spider mites have been killed. The mortality values determined thus are recalculated using the Colby-formula (see above).

[3] = test system: cotton aphid (Aphis gossypii); experiment: Aphis gossypii - spray test; details: for Efficacy in % after 6 days: mortality after 6 days; for Efficacy in % after 1 day: mortality after 1 day, cotton leaves
Experimental: as §1, §2
Aphis gossypii—Spray Test
as §3, §4, §5
Cotton leaves (Gossypium hirsutum) which are heavily infested with the cotton aphid (Aphis gossypii) are treated by being sprayed with the preparation of the active compound of the desired concentration.
After the specified period of time the mortality in % is determined. 100% means all the aphids have been killed; 0% means none of the aphids have been killed. The mortality values determined thus are recalculated using the Colby-formula (see above).

CNC(=O)c1cc(C#N)cc(C)c1NC(=O)c1cc(Cn2nnc(C(F)(F)F)n2)nn1-c1ncccc1Cl [Tetraniliprole, 1-(3-chloro-2-pyridyl)-4′-cyano-2′-methyl-6′-methylcarbamoyl-3-{[5-(trifluoromethyl)-2H-tetrazol-2-yl]methyl}pyrazole-5-carboxanilide]
Efficacy in % after 1 day ([1]; 0.06 ppm): 0% | Efficacy in % after 2 days ([1]; 0.06 ppm): 60% | Efficacy in % after 1 day ([1]; 0.12 ppm): 30% | Efficacy in % after 1 day ([1]; 0.24 ppm): 40% | Efficacy in % after 6 days ([2]; 0.05 g ai/ha): 0% | Efficacy in % after 2 days ([2]; 0.2 g ai/ha): 0% | Efficacy in % after 2 days ([2]; 0.8 g ai/ha): 0% | Efficacy in % after 2 days ([2]; 3.2 g ai/ha): 0%

Cc1cc(F)c(N=C2SCC(=O)N2CC(F)(F)F)cc1[S+]([O-])CC(F)(F)F (stereo not shown) [Cpd of formula (I)]
Efficacy in % after 1 day ([1]; 0.3 ppm): 0% | Efficacy in % after 2 days ([1]; 0.3 ppm): 0% | Efficacy in % after 3 days ([1]; 0.3 ppm): 0% | Efficacy in % after 6 days ([1]; 0.3 ppm): 0% | Efficacy in % after 1 day ([1]; 0.6 ppm): 0% | Efficacy in % after 2 days ([1]; 0.6 ppm): 0% | Efficacy in % after 3 days ([1]; 0.6 ppm): 0% | Efficacy in % after 6 days ([1]; 0.6 ppm): 0% | Efficacy in % after 1 day ([1]; 1.2 ppm): 0% | Efficacy in % after 3 days ([1]; 1.2 ppm): 0% | Efficacy in % after 6 days ([1]; 1.2 ppm): 0% | Efficacy in % after 6 days ([2]; 0.1 g ai/ha): 0% | Efficacy in % after 2 days ([2]; 0.4 g ai/ha): 0% | Efficacy in % after 2 days ([2]; 1.6 g ai/ha): 0% | Efficacy in % after 2 days ([2]; 6.4 g ai/ha): 0% | Efficacy in % after 6 days ([3]; 0.8 ppm): 0% | Efficacy in % after 1 day ([3]; 1.6 ppm): 0% | Efficacy in % after 6 days ([3]; 1.6 ppm): 0%

CNC(=O)c1cc(Cl)cc(C)c1NC(=O)c1cc(Br)nn1-c1ncccc1Cl [Chlorantraniliprole, 3-bromo-4′-chloro-1-(3-chloro-2-pyridyl)-2′-methyl-6′-(methylcarbamoyl)pyrazole-5-carboxanilide]
Efficacy in % after 2 days ([2]; 0.2 g ai/ha): 0% | Efficacy in % after 2 days ([2]; 0.8 g ai/ha): 0% | Efficacy in % after 2 days ([2]; 3.2 g ai/ha): 0% | Efficacy in % after 1 day ([3]; 8 ppm): 10% | Efficacy in % after 6 days ([3]; 8 ppm): 45%

CNC(=O)c1cc(C#N)cc(C)c1NC(=O)c1cc(Br)nn1-c1ncccc1Cl [Cyantraniliprole, 3-bromo-1-(3-chloro-2-pyridyl)-4′-cyano-2′-methyl-6′-(methylcarbamoyl)pyrazole-5-carboxanilide]
Efficacy in % after 2 days ([1]; 0.12 ppm): 0% | Efficacy in % after 3 days ([1]; 0.12 ppm): 0% | Efficacy in % after 6 days ([1]; 0.12 ppm): 10% | Efficacy in % after 1 day ([1]; 0.24 ppm): 0% | Efficacy in % after 2 days ([1]; 0.24 ppm): 0% | Efficacy in % after 3 days ([1]; 0.24 ppm): 10% | Efficacy in % after 6 days ([1]; 0.24 ppm): 20% | Efficacy in % after 3 days ([1]; 0.48 ppm): 60% | Efficacy in % after 6 days ([1]; 0.48 ppm): 70% | Efficacy in % after 2 days ([2]; 0.2 g ai/ha): 0% | Efficacy in % after 2 days ([2]; 0.8 g ai/ha): 0% | Efficacy in % after 2 days ([2]; 3.2 g ai/ha): 0%
